US10351522B2, “Sulfonamide derivative and pharmaceutically acceptable acid addition salt thereof” (UNIVERSITY OF TSUKUBA, priority 2015, dated 2019)

Columns and labels:
human OX1R = target: T1, human OX1R (Homo sapiens, UniProt O43613); experiment: Agonist activity against OX1R: intracellular calcium (Fura-2AM, FDSS7000) in CHOOX1R cells; assay type: cell-based; conditions: relative to orexin-A as full agonist (100%); for Emax at 0.1 µM / Emax at 1 µM / Emax at 10 µM: read-out: Response (%) OX1R
T1 construct: expressed in transfected cells; host or cells: CHO (Chinese hamster ovary) cells, line CHOOX1R, co-expressing NFAT-luciferase
T1 sequence (O43613 1-425): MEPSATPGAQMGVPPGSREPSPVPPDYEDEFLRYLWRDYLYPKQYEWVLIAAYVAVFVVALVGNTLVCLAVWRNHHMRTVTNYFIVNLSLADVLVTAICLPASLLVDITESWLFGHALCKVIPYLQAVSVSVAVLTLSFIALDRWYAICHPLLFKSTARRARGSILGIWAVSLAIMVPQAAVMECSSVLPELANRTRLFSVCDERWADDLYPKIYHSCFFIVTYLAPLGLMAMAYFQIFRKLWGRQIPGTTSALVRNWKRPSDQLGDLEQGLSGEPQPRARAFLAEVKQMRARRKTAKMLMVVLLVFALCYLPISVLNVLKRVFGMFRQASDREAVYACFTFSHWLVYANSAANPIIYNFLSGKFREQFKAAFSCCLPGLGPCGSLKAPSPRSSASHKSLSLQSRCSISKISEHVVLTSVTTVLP
Method: (§1) Evaluation of Agonist Activity Against OX1R and OX2R
(§2) NAFT-luciferase gene and human OX1R gene were constitutively expressed in CHO cell, which is a cell line derived from Chinese hamster ovary to establish a cell line (CHOOX1R) and NAFT-luciferase gene and human OX2R gene were constitutively expressed in CHO cell to establish a cell line (CHOOX2R). The respective cells were seeded in a 96-well Multiplate at 10,000 cells/well and cultured in a 5% FBS (Thermo Scientific)-added DMEM medium (Sigma-Aldrich) for 48 hr. The medium was removed, an assay buffer (20 mM HEPES (Sigma-Aldrich), Hanks' balanced salt solution (Gibco), 0.1% BSA (Sigma-Aldrich), 2.5 mM probenecid acid (Wako Pure Chemical Industries, Ltd.)) (100 μL) containing 5 μM Fura-2AM (Cayman Chemical) was added, and the cells were incubated for 60 min. The buffer containing Fura-2AM was removed, and an assay buffer (75 μL) was added. An assay buffer (25 μL) containing a test compound was added thereto to start the reaction. Changes in the intracellular calcium ion concentration due to the reaction were measured by measuring the fluorescence intensity ratio by dual wavelength excitation at 340 and 380 nm, by using FDSS7000 (Hamamatsu Photonics K.K.). The test compound was dissolved in DMSO to 10 mM, and diluted with the assay buffer to a final concentration of 10^−7M to 10^−5M (final concentration of DMSO 1%).
(§3) (As used herein, Response in Table 21 to Table 27 is a value obtained by dividing the agonist activity value, when the test compound is evaluated with orexin-A as a full-agonist (maximum value of agonist activity: 100%), at 10 μM, 1.0 μM, 0.1 μM by the agonist activity value of orexin-A.)

human OX2R = target: T2, human OX2R (Homo sapiens, UniProt O43614); experiment: Agonist activity against OX2R: intracellular calcium (Fura-2AM, FDSS7000) in CHOOX2R cells; assay type: cell-based; conditions: relative to orexin-A as full agonist (100%)
T2 construct: expressed in transfected cells; host or cells: CHO (Chinese hamster ovary) cells, line CHOOX2R, co-expressing NFAT-luciferase
T2 sequence (O43614 1-444): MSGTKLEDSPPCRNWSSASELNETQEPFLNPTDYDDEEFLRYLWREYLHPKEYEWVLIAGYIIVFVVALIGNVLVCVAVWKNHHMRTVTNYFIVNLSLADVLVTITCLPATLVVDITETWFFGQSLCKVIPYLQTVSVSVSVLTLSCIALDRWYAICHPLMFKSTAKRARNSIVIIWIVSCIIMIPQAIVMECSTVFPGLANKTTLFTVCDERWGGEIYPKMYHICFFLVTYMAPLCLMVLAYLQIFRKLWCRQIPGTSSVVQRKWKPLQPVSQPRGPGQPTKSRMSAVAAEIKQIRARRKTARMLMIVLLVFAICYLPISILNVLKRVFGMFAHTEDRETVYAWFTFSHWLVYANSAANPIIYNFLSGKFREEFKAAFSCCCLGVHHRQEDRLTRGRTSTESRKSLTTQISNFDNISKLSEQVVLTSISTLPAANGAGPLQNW
Method: as §1, §2, §3

Row | SMILES | Response (%) OX1R (human OX1R; test compound 0.1 μM) [%] | Response (%) OX1R (human OX1R; test compound 1.0 μM) [%] | Response (%) OX1R (human OX1R; test compound 10 μM) [%] | Response (%) OX2R (human OX2R; test compound 0.1 μM) [%] | Response (%) OX2R (human OX2R; test compound 1.0 μM) [%] | Response (%) OX2R (human OX2R; test compound 10 μM) [%] | Emax at 0.1 µM (human OX1R; test compound 0.1 μM) [%] | Emax at 1 µM (human OX1R; test compound 1.0 μM) [%] | Emax at 10 µM (human OX1R; test compound 10 μM) [%] | Response (%) OX1R (human OX1R; 0.1 μM test compound) [%] | Response (%) OX1R (human OX1R; 1.0 μM test compound) [%] | Response (%) OX1R (human OX1R; 10 μM test compound) [%] | Response (%) OX2R (human OX2R; 0.1 μM test compound) [%] | Response (%) OX2R (human OX2R; 1.0 μM test compound) [%] | Response (%) OX2R (human OX2R; 10 μM test compound) [%]
1 | COc1ccc(-c2cccc(C(=O)N(C)C)c2)cc1S(=O)(=O)Nc1cccc(NC(=O)Nc2cccc(N(C)C)c2)n1 [Example 124] | 8 | 7 | 8 | 9 | 78 | 147 |  |  |  |  |  |  |  |  | 
2 | CCOc1ccc(-c2cccc(C(=O)N(C)C)c2)cc1S(=O)(=O)Nc1cccc(NC(=O)Nc2cccc(N(C)C)c2)c1 [Example 119, 3′-(N-(3-(3-(3-(dimethylamino)phenyl)ureido)phenyl)sulfamoyl)-4′-ethoxy-N,N-dimethyl-[1,1′-biphenyl]-3-carboxamide] |  |  |  | 49 | 85 | 98 | < 5 | < 5 | < 5 |  |  |  |  |  | 
3 | COc1ccc(-c2cccc(C(=O)N(C)C)c2)cc1S(=O)(=O)Nc1cccc(NC(=O)C[S+]([O-])C(c2ccccc2)c2ccccc2)c1 (stereo not drawn) [Example 13] |  |  |  |  |  |  |  |  |  | <5 | 63 | 107 | 11 | 117 | 109
4 | COc1ccc(-c2cccc(C(=O)N(C)C)c2)cc1S(=O)(=O)Nc1cccc(NC(=O)Nc2cccc(Br)c2)c1 [Example 50] |  |  |  |  |  |  |  |  |  | <5 | <5 | <5 | 100 | 94 | 97
5 | COc1ccc(Nc2c(Nc3cccc(NS(=O)(=O)c4cc(-c5cccc(C(=O)N(C)C)c5)ccc4OC)c3)c(=O)c2=O)cc1 [Example 81] | <5 | <5 | 7 | <5 | <5 | 27 |  |  |  |  |  |  |  |  | 
6 | C=CC(=O)NCCN(C(=O)C=C)c1cccc(NS(=O)(=O)c2cc(-c3cccc(C(=O)N(C)C)c3)ccc2OC)c1 [Example 94, 3′-(N-(3-(N-(2-acrylamidoethyl)acrylamido)phenyl)sulfamoyl)-4′-methoxy-N,N-dimethyl-[1,1′-biphenyl]-3-carboxamide] |  |  |  | <5 | <5 | 46 | < 5 | < 5 | < 5 |  |  |  |  |  | 
7 | COc1ccc(-c2cccc(C(=O)N(C)C)c2)cc1S(=O)(=O)Nc1cccc(NC(=O)Nc2cccc(NC(=NC(=O)OC(C)(C)C)NC(=O)OC(C)(C)C)c2)c1 [Example 64] |  |  |  |  |  |  |  |  |  | <5 | <5 | <5 | <5 | <5 | <5
8 | COc1ccc(Nc2cccc(NS(=O)(=O)c3cc(-c4cccc(C(=O)N(C)C)c4)ccc3OC)c2)cc1OC [Example 33] |  |  |  |  |  |  |  |  |  | <5 | <5 | 50 | 37 | 92 | 87
9 | COc1ccc(-c2cccc(C(=O)N(C)C)c2)cc1S(=O)(=O)Nc1cccc(N2CCCN(c3ccccc3)C2=O)c1 [Example 132] | <5 | <5 | 46 | 42 | 100 | 101 |  |  |  |  |  |  |  |  | 
10 | CCN(Cc1cccnc1)C(=O)c1ccc(OC)c(S(=O)(=O)Nc2cccc(NC(=O)Nc3cccc(N(C)C)c3)c2)c1 [Example 102] | <5 | <5 | <5 | 61 | 97 | 100 |  |  |  |  |  |  |  |  | 
11 | COc1ccc(-c2cccc(C(=O)N(C)C)c2)cc1S(=O)(=O)Nc1cccc(N2CCCCN(c3cccc(N(C)C)c3)C2=O)c1 [Example 136] | <5 | 78 | 110 | 144 | 97 | 94 |  |  |  |  |  |  |  |  | 
12 | COc1ccc(-c2cccc(C(=O)N(C)C)c2)cc1S(=O)(=O)Nc1cccc(NC(=O)Nc2ccc(N(C)C)cc2)c1 [Example 39] |  |  |  |  |  |  |  |  |  | <5 | <5 | 32 | 73 | 59 | 53
13 | COc1ccccc1NC(=O)Nc1cccc(NS(=O)(=O)c2cc(-c3cccc(C(=O)N(C)C)c3)ccc2OC)c1 [Example 52] |  |  |  |  |  |  |  |  |  | <5 | <6 | <7 | 43 | 81 | 78
14 | COc1ccc(Nc2cccc(NS(=O)(=O)c3cc(-c4cccc(C(=O)N(C)C)c4)ccc3OC)c2)cc1 [Example 29] |  |  |  |  |  |  |  |  |  | <5 | <5 | <5 | 11 | 84 | 81
15 | COc1ccccc1Nc1cccc(NS(=O)(=O)c2cc(-c3cccc(C(=O)N(C)C)c3)ccc2OC)c1 [Example 31] |  |  |  |  |  |  |  |  |  | <5 | <5 | <5 | <5 | 10 | 72
16 | COc1ccc(-c2cccc(C(=O)N(C)C)c2)cc1S(=O)(=O)Nc1cccc(NC(=O)Nc2ccc(N(C)C)nc2)c1 [Example 71] |  |  |  |  |  |  |  |  |  | 6 | <5 | 10 | 106 | 97 | 113
